Laboratory results as given in patent publication US20060088897A1, “Modulators” (priority 2003, published 2006).
Entries after “also recorded” stand apart in the source; their conditions may differ.

Tests used:
Assay type in all cases: cell-based
[1] = test system: N1E-115 cells; experiment: Microinjection of peptides into partially serum starved N1E-115 cells, phalloidin staining and confocal microscopy of cell morphology; details: for effect on formation of lamellipodia, filopodia or neurites concluded from microinjection: FIG. 8A; for cell morphology after peptide microinjection: peptide injected at 10 μg/ml, cells serum starved 2-4 h, FIG. 7A, 8A
Description: Cells are starved for 2-3 h and then either injected with peptides (10 μg/ml) or exposed to peptides with bioporter reagent. Cells are incubated for a further 2 h before being stained with phalloiden and examined by confocal microscopy (as described in the materials and methods section). (A) The upper cells is injected with αP1 (a), or all cells injected with αP1*(b), or exposed to αP2 with bioporter reagent (c). […] Results are expressed as means+/−SEM of 3 experiments (n=333-426 cells). […] (D) Cells are exposed to bioporter reagent with αP2 and after 6 h double stained with αPAK and vinculin antibodies; (a) Vinculin/αPAK, (b) Vinculin and (c) αPAK. Bar=10 μM. Control bars are with IgG with bioporter/microinjection.
(§1) Cells are starved for 2-3 h and then injected with peptides. Cells are then incubated for 2 h before being stained with phalloiden and examined by confocal microscopy (as described in the materials and methods section). (A) Cells are injected with IgG (a), with αP2 (b), with βP2 (c) and γP2 (d). Bar=10 μM. (B) Cells are exposed to bioporter with peptides and presence of neurites, pronounced filopodia and pronounced lamellipodia/ruffles scored (definitions as in FIG. 7). (C) Cells are either exposed to bioporter reagent coated peptides (αP2 and βP2) and then IGF or serum starvation used to activate cells. For γP2 cells are injected with peptide and stimulated with serum. Filopodia and lamellipodia are scored by using time-lapse phase contrast microscopy. +/−SEM of 3 experiments (n=900). Control peptide is taken from the kinase domain and common to the three PAK isoforms.
Cells are plated out at 1.0×10^5 cells in 1 ml in a 35 mm dish containing 2 laminin coated coverslips. The coverslips are first marked with a grid using a fine permanent marker and then coated with laminin and incubated overnight in DMEM, 10% FCS, 1% AB/AM. The media is replaced with serum free media (DMEM, 1% AB/AM) and the cells starved for 1 hour so that they flattened and are easier to inject. The peptides are injected at 10 μg/ml in PBS, Rat IgG at 1 mg/ml is added to act as a marker for injected cells.
The cells are injected using an Eppendorf microinjection apparatus on an Axioplan inverted microscope equipped with a heated stage maintained at 37° C. and a 5% CO2 chamber. Humidity is maintained by a dish of sterile water inside the CO2 chamber. Cells in a grid square are injected and positive injection checked visually at the time of injection or after fixation and staining for the injected marker. After injection the cells are returned to the incubator for a further 2 hours. Giving a total time without serum of 4 hours.
The only difference between these two peptides being that the latter peptide is phosphorylated on serine and this modification prevents it from binding Nck (Zhao et al., 1998). To investigate the effects of peptides we first serum starve the cells for 2-4 h to activate Cdc42Hs and Rac.

[2] = test system: N1E-115 cells; experiment: Phase contrast time-lapse analysis of filopodia and lamellipodia formation in a gradient of IGF; details: followed for 60 min; FIG. 8C
Description: as §1
Time lapse microscopy is carried out on a heated stage (37° C.) in an atmosphere of humidified air and 5% CO2. Cells are video recorded using a, Axiovert 135 microscope, Palmix TM-6CN video camera and Sony-u-matic V0-5800 PS video recorder. Individual images are captured using Bio-rad COMOS software and manipulated with Adobe photoshop. Confocal microscopy is carried out using a LSM 410 Zeiss scanning microscope with 3 single line lasers at 488 nM (argon), 543 nM and 633 nM, (HeNe). […]

[3] = test system: N1E-115 cells; experiment: Cell guidance assay at Laminin/CSPG boundary (axonal guidance); details: for neurite morphology: serum starved cells, FIG. 9A
Description: Effect of PAK peptides on neurite morphology. Cells are exposed to control peptide, αP 1*, αP2, βP2, or γP2 and neurite morphology assessed. (B) Cells are plated on coverslips that been treated to create a Laminin/CSGP boundary. After 6 h cells are examined for their ability to project neurites that crossed the substrate boundary. Cells exposed to bioporter coated peptides, (a) αP2, (b) βP2, and (c) γP2. […] Results are means+/−SEM (n=161-263). (C) Cells are exposed to peptides and after 6 h are scored for their ability to cross boundary from Laminin to CSPG.
The coverslips are washed and sterilised and then coated in one of the following ways.
A second layer of laminin is applied as a drop mixed with 1 μg/ml TRITC label. Coverslips are left for 1 hour at RT and then rinsed twice with sterile water before allowing to dry before use. (iii) Attractive/repulsive boundary. Slides are coated with CSPG 5 μg/ml for 1 hour at 37° C. in a humid chamber then rinsed once in sterile H2O and allowed to air dry before the drop of laminin at 10 μg/ml is applied to the centre of the coverslip and left for 1 hour at RT before rinsing twice in sterile water and allowing to dry before use. This coating is also done in reverse with the laminin applied first and then the tenascin or the CSPG applied second.
The cells are then seeded onto the prepared coverslips at 2×10^5 cells in 1 ml in a 35 mm petri dish, in DMEM, 10% FCS, and 1% AB/AM. Cells are allowed to attach overnight. The media is then removed and the coverslips rinsed in serum free media and incubated overnight (18 h) in serum free media. After the starvation the cells are fixed and stained to show the morphology of the cells at the boundary. Only neurites expressing neurofilamant are scored.
After 5 minutes, the cells are washed once with serum free DMEM media and then 1 ml of serum free DMEM is added to the tube containing the peptide and BioPorter mix it is vortexed gently before being added to the cells. The cells are incubated for 4 hours at 37° C. After the 4 hour incubation the cells are then incubated for a further 2 hours in 5% FCS DMEM or for cells undergoing a substrate guidance assay the 2 hour incubation is in serum free DMEM. The cells are fixed and stained.
Neurofilament positive neurites are scored for how they respond to Laminin/CSPG boundary. […] However, neurites do have distinct morphologies (FIG. 9A). Thus α, β and γ PAK are not essential for neurite outgrowth.

[4] = test system: N1E-115 cells; experiment: Axonal guidance towards IGF (preliminary experiments); details: unpublished data
Description: In preliminary experiments we have also examined the effect of the PAK peptides on axonal guidance towards IGF in N1E-115 cells.

[5] = test system: Bac1 macrophages; experiment: Time lapse / microinjection analysis of Bac1 macrophage morphology (CSF, LPA gradients, C3 toxin)
Description: (A) Bac1 cells are grown (24 h) in four different ways and then stained with phalloidin to visualise F-actin. With serum alone (a), without CSF/serum (b), with CSF/serum (c), and with CSF alone (d). (B) Cells are starved of CSF for 24 h and then exposed to gradient of CSF (1.32 nM) through a needle. A time lapse sequence is shown over 30 min. (C) Bac1 macrophages are CSF/serum starved for 24 h and then exposed to a gradient of LPA through a needle. A time lapse sequence is shown over 10 min. (D) Bac1 macrophages starved for serum alone and then exposed to a gradient of CSF through a needle and LPA added to the medium. CSF is added in panel (b) followed by LPA. Panels c-f show process retraction on the side of the cell that is not protected by CSF. Arrows in (B) show the formation of filopodia. Arrows in (C) show process retraction. Bar=10 μM. […]
Proteins purified from E. coli and C3 toxin are microinjected in 50 MM Tris pH 7.5, 50 mM NaCl, 5 mM MgCl2 using an Eppendorf microinjector and Axiovert microscope. Successful injection is determined visually at the time of injection and by use of IgG. […]
Time lapse microscopy is carried out on a heated stage (37° C.) in an atmosphere of humidified air and 5% CO2. Cells are video recorded using a, Axiovert 135 microscope, Palmix TM-6CN video camera and Sony-u-matic V0-5800 PS video recorder. […]

Molecule | effect on formation of lamellipodia, filopodia or neurites concluded from microinjection [1] | cell morphology after peptide microinjection [1] | formation of filopodia in response to IGF gradient [2] | ability to detect the Laminin/CSPG boundary ([3]; FIG. 9C) | neurites crossing over the Laminin/CSPG boundary ([3]; control approx. 10%, FIG. 9C) | neurite morphology [3] | formation of lamellipodia in response to IGF gradient [2] | decision making process of moving towards IGF [4] | effect on axonal guidance towards IGF [4] | protection from LPA mediated process collapse ([5]; CSF via needle, LPA added to medium after 1.5 min, FIG. 2D) | morphological response of Bac1 cells to a gradient of the factor ([5]; gradient through a needle, FIG. 2B, 2C)
SDNGELEDKPPAPPVRMSST [γP2, peptide derived from γPAK] | blocks filopodia formation | large fan-shaped lamellipodia with no filopodia | inhibit | do not to recognize the boundary | 60-70% | smooth and flattened with fan shaped growth cones; also recorded: flattened growth cones and very few filopodia | – | – | – | – | –
SDSLDNEEKPPAPPLRMNSN [βP2, peptide derived from βPAK] | blocks lamellipodia formation | numerous filopodia along a newly formed leading edge with no lamellipodia | – | not affected | – | branched and spiky with lamellipodia and ruffles inhibited | inhibit | does slow down the decision making process | do not affect guidance | – | –
CSF: growth factor for Bac1 macrophages; activates Cdc42Hs and Rac1 (protein, UniProt P07141 33-552, looked up) Macrophage colony-stimulating …: KEVSEHCSHMIGNGHLKVLQQLIDSQMETSCQIAFEFVDQEQLDDPVCYLKKAFFLVQDIIDETMRFKDNTPNANATERLQELSNNLNSCFTKDYEEQNKACVRTFHETPLQLLEKIKNFFNETKNLLEKDWNIFTKNCNNSFAKCSSRDVVTKPDCNCLYPKATPSSDPASASPHQPPAPSMAPLAGLAWDDSQRTEGSSLLPSELPLRIEDPGSAKQRPPRSTCQTLESTEQPNHGDRLTEDSQPHPSAGGPVPGVEDILESSLGTNWVLEEASGEASEGFLTQEAKFSPSTPVGGSIQAETDRPRALSASPFPKSTEDQKPVDITDRPLTEVNPMRPIGQTQNNTPEKTDGTSTLREDHQEPGSPHIATPNPQRVSNSATPVAQLLLPKSHSWGIVLPLGELEGKRSTRDRRSPAELEGGSASEGAARPVARFNSIPLTDTGHVEQHEGSSDPQIPESVFHLLVPGIILVLLTVGGLLFYKWKWRSHRDPQTLDSSVGRPEDSSLTQDEDRQVELPV | – | – | – | – | – | – | – | – | – | can protect the process nearest to the source of CSF from LPA mediated process collapse | induces the formation of filopodia and lamellipodia
